Measurements published in US10941152B2, “Pyrazole compounds as modulators of FSHR and uses thereof” (TOCOPHERX, INC., priority 2014, dated 2021).

Legend:
[1] = target: T1, follicle-stimulating hormone (FSH) receptor (Rattus norvegicus, UniProt P20395); experiment: Rat granulosa EC50 FSH (Assay B); format: cell-based
T1 construct: endogenous in cells; host or cells: rat granulosa cells
T1 sequence (P20395 18-692): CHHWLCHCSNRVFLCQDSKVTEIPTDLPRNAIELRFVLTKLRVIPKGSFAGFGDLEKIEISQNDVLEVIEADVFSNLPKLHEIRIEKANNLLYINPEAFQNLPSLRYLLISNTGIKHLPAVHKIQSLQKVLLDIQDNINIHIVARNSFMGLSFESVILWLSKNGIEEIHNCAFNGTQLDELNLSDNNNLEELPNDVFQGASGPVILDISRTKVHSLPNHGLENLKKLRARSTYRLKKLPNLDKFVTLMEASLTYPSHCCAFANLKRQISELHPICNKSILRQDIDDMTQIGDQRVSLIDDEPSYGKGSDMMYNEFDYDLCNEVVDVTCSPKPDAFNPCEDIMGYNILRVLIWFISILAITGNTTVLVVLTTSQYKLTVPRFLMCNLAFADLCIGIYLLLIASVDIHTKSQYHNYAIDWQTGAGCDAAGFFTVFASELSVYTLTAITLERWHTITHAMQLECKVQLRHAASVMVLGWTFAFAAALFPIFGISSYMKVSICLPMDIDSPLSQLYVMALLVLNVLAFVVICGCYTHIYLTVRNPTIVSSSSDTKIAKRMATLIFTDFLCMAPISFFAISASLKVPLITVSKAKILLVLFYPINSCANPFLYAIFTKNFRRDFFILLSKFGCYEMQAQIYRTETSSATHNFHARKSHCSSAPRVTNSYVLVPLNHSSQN
Experimental: Example 25. Rat granulosa EC50 FSH (Assay B)
The assay was performed pursuant to the teaching of Yanofsky et al. (2006) Allosteric activation of the follicle-stimulating hormone (FSH) receptor by selective, nonpeptide agonists (JBC 281(19): 13226-13233, which is incorporated by reference in the disclosure of the invention).

[2] = target: T2, FSHR (Homo sapiens, UniProt P23945); experiment: EC50 of cyclic AMP production in CHO FSHR cells + EC20 FSH (Assay A); format: cell-based; conditions: cyclic AMP production in CHO FSHR cells + EC20 FSH (0.265 pM), HTRF
T2 construct: expressed in transfected cells; host or cells: CHO (Cho-FSHR-LUC-1-1-43)
T2 sequence (P23945 18-695): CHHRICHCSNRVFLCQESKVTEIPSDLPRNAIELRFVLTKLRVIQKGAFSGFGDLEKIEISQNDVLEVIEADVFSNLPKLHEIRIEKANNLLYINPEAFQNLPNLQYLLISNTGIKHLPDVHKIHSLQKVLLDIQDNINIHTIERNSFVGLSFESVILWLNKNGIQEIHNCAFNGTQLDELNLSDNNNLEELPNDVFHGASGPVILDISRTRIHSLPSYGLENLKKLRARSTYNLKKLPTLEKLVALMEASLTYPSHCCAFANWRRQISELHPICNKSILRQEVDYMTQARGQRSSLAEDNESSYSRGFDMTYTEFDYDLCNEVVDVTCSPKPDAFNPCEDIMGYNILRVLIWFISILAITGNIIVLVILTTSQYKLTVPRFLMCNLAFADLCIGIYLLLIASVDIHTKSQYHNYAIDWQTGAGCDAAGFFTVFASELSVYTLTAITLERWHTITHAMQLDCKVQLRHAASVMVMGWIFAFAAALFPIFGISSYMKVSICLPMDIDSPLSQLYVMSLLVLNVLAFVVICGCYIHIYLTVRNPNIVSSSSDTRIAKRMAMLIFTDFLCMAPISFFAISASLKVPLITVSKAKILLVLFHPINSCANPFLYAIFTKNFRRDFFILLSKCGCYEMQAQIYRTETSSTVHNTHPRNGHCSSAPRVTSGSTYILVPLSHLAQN
Outline: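 CHO cells expressing FSHR, stimulated 1 h at 37° C with compound plus EC20 FSH (0.265 pM final) and 200 μM IBMX. cAMP measured by HTRF (665/620 nm ratio) after 1 h at room temperature; effect expressed relative to maximum response of FSH standard.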

Row | EC50 [1] [nM] | EC50 [2] [nM] | Compound
1 | 101 to 500 | < 10 | COc1cc2c(cc1-c1cnc(C)c(C(N)=O)c1)-c1c(c(C(=O)N(C)C(C)(C)C)nn1-c1cc(Cl)cc(Cl)c1)CO2 [Compound 170]
2 | 10 to 100 | < 10 | COc1cc2c(cc1-c1cccc(C(N)=O)c1)-c1c(c(C(=O)N(C)C(C)(C)C)nn1-c1cc(Cl)cc(Cl)c1)CO2 [Compound 172]
3 | 101 to 500 | < 10 | COc1cc2c(cc1-c1cnn(CC(N)=O)c1)-c1c(c(C(=O)N(C)C(C)(C)C)nn1-c1cc(Cl)cc(Cl)c1)CO2 [Compound 67, 8-(1-(2-amino-2-oxoethyl)-1H-pyrazol-4-yl)-N-tert-butyl-1-(3,5-dichlorophenyl)-7-methoxy-N-methyl-1,4-dihydrochromeno[4,3-c]pyrazole-3-carboxamide]
4 | 101 to 500 | < 10 | COc1cc(OC)cc(-n2nc(C(=O)N(C)C(C)(C)C)c3c2-c2cc(-c4nn(C)cc4Br)c(OC)cc2OC3)c1 [Compound 145, 8-(4-bromo-1-methyl-1H-pyrazol-3-yl)-N-tert-butyl-1-(3,5-dimethoxyphenyl)-7-methoxy-N-methyl-1,4-dihydrochromeno[4,3-c]pyrazole-3-carboxamide]
5 | 101 to 500 | < 10 | COc1cc(F)cc(-n2nc(C(=O)N(C)C(C)(C)C)c3c2-c2cc(-c4cncc(C(N)=O)c4)c(OC)cc2OC3)c1 [Compound 166]
6 | > 500 | 10 to 100 | COc1cc2c(cc1-c1ccn(C)n1)-c1c(c(C(=O)N(C)C(C)(C)C)nn1-c1cc(Cl)cc(Cl)c1)CO2 [Compound 4, N-tert-butyl-1-(3,5-dichlorophenyl)-7-methoxy-N-methyl-8-(1-methyl-1H-pyrazol-3-yl)-1,4-dihydrochromeno[4,3-c]pyrazole-3-carboxamide]
7 | 10 to 100 | < 10 | COc1cc2c(cc1-c1cncc(C#N)c1)-c1c(c(C(=O)N3CC[S+]([O-])CC3(C)C)nn1-c1cc(F)cc(F)c1)CO2 (stereo not shown) [Compound 49]
8 | 10 to 100 | < 10 | COc1cc2c(cc1-c1nn(C)cc1Br)-c1c(c(C(=O)N(C)C(C)(C)C)nn1-c1cc(Cl)cc(Cl)c1)CO2 [Compound 148]
9 | 101 to 500 | < 10 | COc1cc2c(cc1-c1cc(F)cc(CO)c1)-c1c(c(C(=O)N(C)C(C)(C)C)nn1-c1cc(Cl)cc(Cl)c1)CO2 [Compound 80, N-tert-butyl-1-(3,5-dichlorophenyl)-8-(3-fluoro-5-(hydroxymethyl)phenyl)-7-methoxy-N-methyl-1,4-dihydrochromeno[4,3-c]pyrazole-3-carboxamide]
10 | 101 to 500 | < 10 | COc1cc2c(cc1-c1cnn(CC(=O)N(C)C)c1)-c1c(c(C(=O)N(C)C(C)(C)C)nn1-c1cc(Cl)cc(Cl)c1)CO2 [Compound 90, N-tert-butyl-1-(3,5-dichlorophenyl)-8-(1-(2-(dimethylamino)-2-oxoethyl)-1H-pyrazol-4-yl)-7-methoxy-N-methyl-1,4-dihydrochromeno[4,3-c]pyrazole-3-carboxamide]
11 | 10 to 100 | < 10 | CNC(=O)Cn1cc(-c2cc3c(cc2OC)OCc2c(C(=O)N(C)C(C)(C)C)nn(-c4cc(Cl)cc(Cl)c4)c2-3)cn1 [Compound 91, N-tert-butyl-1-(3,5-dichlorophenyl)-7-methoxy-N-methyl-8-(1-(2-(methylamino)-2-oxoethyl)-1H-pyrazol-4-yl)-1,4-dihydrochromeno[4,3-c]pyrazole-3-carboxamide]
12 | 10 to 100 | < 10 | COc1cc(OC)cc(-n2nc(C(=O)N(C)C(C)(C)CCO)c3c2-c2cc(-c4cccnc4F)c(OC)cc2OC3)c1 [Compound 135, 1-(3,5-dimethoxyphenyl)-8-(2-fluoropyridin-3-yl)-N-(4-hydroxy-2-methylbutan-2-yl)-7-methoxy-N-methyl-1,4-dihydrochromeno[4,3-c]pyrazole-3-carboxamide]
13 | 101 to 500 | < 10 | COc1cc(F)cc(-n2nc(C(=O)N3CCOCC3(C)C)c3c2-c2cc(-c4cnn(CC(N)=O)c4)c(OC)cc2OC3)c1 [Compound 73, 2-(4-(3-(3,3-dimethylmorpholine-4-carbonyl)-1-(3-fluoro-5-methoxyphenyl)-7-methoxy-1,4-dihydrochromeno[4,3-c]pyrazol-8-yl)-1H-pyrazol-1-yl)acetamide]
14 | 101 to 500 | < 10 | CCN(C(=O)c1nn(-c2cc(Cl)cc(Cl)c2)c2c1COc1cc(OC)c(-c3ccn(C)n3)cc1-2)S(=O)(=O)CC [Compound 188, 1-(3,5-dichlorophenyl)-N-ethyl-N-(ethylsulfonyl)-7-methoxy-8-(1-methyl-1H-pyrazol-3-yl)-1,4-dihydrochromeno[4,3-c]pyrazole-3-carboxamide]
15 | < 10 | < 10 | COc1cc2c(cc1-c1cncc(C(N)=O)c1)-c1c(c(C(=O)N3CCOCC3(C)C)nn1-c1cc(F)cc(F)c1)CO2 [Compound 164]
16 | 101 to 500 | < 10 | COc1cc2c(cc1-c1cccc(C#N)c1F)-c1c(c(C(=O)N(C)C(C)(C)C)nn1-c1cc(Cl)cc(Cl)c1)CO2 [Compound 19, N-tert-butyl-8-(3-cyano-2-fluorophenyl)-1-(3,5-dichlorophenyl)-7-methoxy-N-methyl-1,4-dihydrochromeno[4,3-c]pyrazole-3-carboxamide]
17 | > 500 | 10 to 100 | CCOC(=O)[C@@H]1C[C@@H]1c1cc2c(cc1OC)OCc1c(C(=O)N(C)C(C)(C)C)nn(-c3cc(Cl)cc(Cl)c3)c1-2 (racemic) [Compound 197, (1RS,2SR)-ethyl 2-(3-(tert-butyl(methyl)carbamoyl)-1-(3,5-dichlorophenyl)-7-methoxy-1,4-dihydrochromeno[4,3-c]pyrazol-8-yl)cyclopropanecarboxylate]
18 | 101 to 500 | < 10 | COC(=O)[C@H]1C[C@@H]1c1cc2c(cc1OC)OCc1c(C(=O)N(C)C(C)(C)C)nn(-c3cc(F)cc(F)c3)c1-2 (racemic) [Compound 206]
19 | > 500 | 10 to 100 | COc1cc2c(cc1-c1ccccn1)-c1c(c(C(=O)N(C)C(C)(C)C)nn1-c1ccsc1)CO2 [Compound 58, N-tert-butyl-7-methoxy-N-methyl-8-(pyridin-2-yl)-1-(thiophen-3-yl)-1,4-dihydrochromeno[4,3-c]pyrazole-3-carboxamide]
20 | 10 to 100 | 10 to 100 | COc1cc2c(cc1-c1cc(CO)ncc1F)-c1c(c(C(=O)N(C)C(C)(C)C)nn1-c1cc(F)cc(F)c1)CO2 [Compound 75, N-tert-butyl-1-(3,5-difluorophenyl)-8-(5-fluoro-2-(hydroxymethyl)pyridin-4-yl)-7-methoxy-N-methyl-1,4-dihydrochromeno[4,3-c]pyrazole-3-carboxamide]
21 | > 500 | 10 to 100 | COc1cc2c(cc1-c1cnn(CC(O)CO)c1)-c1c(c(C(=O)N(C)C(C)(C)C)nn1-c1cc(Cl)cc(Cl)c1)CO2 (stereo not shown) [Compound 190, N-tert-butyl-1-(3,5-dichlorophenyl)-8-(1-(2,3-dihydroxypropyl)-1H-pyrazol-4-yl)-7-methoxy-N-methyl-1,4-dihydrochromeno[4,3-c]pyrazole-3-carboxamide]
22 | > 500 | 10 to 100 | COc1cc2c(cc1-c1ncnn1C)-c1c(c(C(=O)N(C)C(C)(C)C)nn1-c1ccsc1)CO2 [Compound 208]
23 | 101 to 500 | < 10 | COc1cc2c(cc1C1CC1C(N)=O)-c1c(c(C(=O)N(C)C(C)(C)C)nn1-c1cc(Cl)cc(Cl)c1)CO2 (stereo not shown) [Compound 199]
